The target in experiment [1] is T1, 5-HT reuptake (Rattus norvegicus, UniProt P31652).
T1 construct: synaptosomes are freshly isolated from areas of the rat brain; from tissue; host or cells: P2 synaptosome fraction from the medulla+pons region of male rat brain
Put plainly: 5-HT reuptake inhibition in rat brain synaptosomes (medulla+pons). In kind it is biochemical. The text has this: In order to be able to carry out these in vitro studies, synaptosomes are freshly isolated from areas of the rat brain. […] For the NA reuptake these vesicular particles are isolated from the hypothalamus, and for the 5-HT reuptake from the medulla+pons region of male rat brains.
The IC50 values were obtained with the aid of the computer program “Figure P” (version 6.0, Biosoft, Cambridge, England). […] The computer program “Ligand” (version 4, Biosoft, England) was used to display KD values.

Experiment [2] deals with T2, human μ-opiate receptor (Homo sapiens, UniProt P35372).
T2 construct: purchased Perkin Elmer, Zaventem, Belgium RB-HOM; host or cells: CHO-K1 cells (recombinant expression)
The experiment can be described thus: Affinity for the human μ-opiate receptor ([3H]-naloxone displacement, CHO-K1 membrane preparation, SPA). Format: binding. How it is done:
Investigation of the affinity for the human μ-opiate receptor The receptor affinity for the human μ-opiate receptor is determined in a homogeneous set-up in microtitre plates. For this, dilution series of the substances to be tested are incubated with a receptor membrane preparation (15-40 μg protein/250 μl incubation batch) of CHO-K1 cells which express the human μ-opiate receptor (RB-HOM receptor membrane preparation from Perkin Elmer, Zaventem, Belgium) in the presence of 1 nmol/l of the radioactive ligand [^3H]-naloxone (NET719, Perkin Elmer, Zaventem, Belgium) and 1 mg WGA-SPA-Beads (wheat germ agglutinin SPA beads from Amersham/Pharmacia, Freiburg, Germany) in a total volume of 250 μl for 90 minutes at room temperature. 50 mmol/l Tris-HCl supplemented with 0.05% sodium azide and with 0.06% bovine serum albumin is used as the incubation buffer. 25 μmol/l naloxone are additionally added for determination of the non-specific binding. After the end of the ninety-minute incubation time, the microtitre plates are centrifuged for 20 minutes at 1,000 g and the radioactivity is measured in a […] (Microbeta-Trilux, PerkinElmer Wallac, Freiburg, Germany). The percentage displacement of the radioactive ligand from its binding to the human μ-opiate receptor is determined at a concentration of the test substances of 1 μmol/l and stated as the percentage inhibition of the specific binding. Starting from the percentage displacement by various concentrations of the test substances, IC50 inhibitory concentrations which cause a 50 percent displacement of the radioactive ligand are calculated. By conversion by means of the Cheng-Prusoff relationship, Ki values for the test substances are obtained (Cheng and Prusoff 1973).

Experiment [3] has as its system rats. The experiment can be described thus: Elevated plus maze test on rats (onset of anxiolytic actions). Format: in vivo, rat. The procedure:
In the elevated plus maze test the actions of substances on the endogenous anxiety of rodents towards open and elevated places are determined.
The apparatus was placed approx. 1 m above the floor and comprised four arms arranged in a cross, two opposite arms being open and two closed. […] The duration of stay and the number of entries into the open arms were evaluated. The group size was 10-15 animals. The single administration of the test substances or of the control vehicle took place 30 min before testing.
It is reported in the literature that benzodiazepines induce an increased duration of stay and entries into the open compartment. […] The typical disadvantages of monoamine reuptake inhibitors in the therapy of anxiety patients, namely the delayed onset of action and the initially anxiogenic-like effects, can thus be followed in the elevated plus maze test on rats. The elevated plus maze test is therefore a suitable animal model for the investigation of new therapies which have the aim of accelerating the onset of action of monoamine reuptake inhibitors.
Statistical evaluation: Anova plus post-hoc Dunnett's test (Significance level: p<0.05; *: significant versus vehicle; #: significant versus intrinsic effect of 16 mg/kg i.p. 3-(2-dimethylaminomethyl-cyclohexyl)-phenol).

The mark [4] stands for this setting: 1 mg/kg i.p., single administration.
Setting [5] is: 8 mg/kg i.p., single administration 30 min before testing.
[6] abbreviates: 16 mg/kg i.p., single administration 30 min before testing.
[7] abbreviates: 2 mg/kg i.p., single administration.

Structures can show the parent of a compound that is named as a salt. Marks after values point to notes of the source that are not given here.

As usually defined, the Ki is the dissociation constant of the complex between target and ligand, obtained from inhibition or displacement. A lower Ki goes with a stronger hold on the target.

T2 sequence (P35372 whole entry): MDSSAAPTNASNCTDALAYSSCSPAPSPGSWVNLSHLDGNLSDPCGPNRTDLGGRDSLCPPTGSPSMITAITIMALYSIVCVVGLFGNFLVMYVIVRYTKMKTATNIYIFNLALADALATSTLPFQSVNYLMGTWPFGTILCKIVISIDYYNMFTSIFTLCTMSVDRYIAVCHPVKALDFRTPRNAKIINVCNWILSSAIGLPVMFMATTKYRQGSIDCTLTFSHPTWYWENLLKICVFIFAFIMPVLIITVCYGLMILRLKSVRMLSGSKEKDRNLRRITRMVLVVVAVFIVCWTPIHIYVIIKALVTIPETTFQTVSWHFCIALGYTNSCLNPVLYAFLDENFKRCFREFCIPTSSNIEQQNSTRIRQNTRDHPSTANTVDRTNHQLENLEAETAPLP
T1 sequence (P31652 whole entry): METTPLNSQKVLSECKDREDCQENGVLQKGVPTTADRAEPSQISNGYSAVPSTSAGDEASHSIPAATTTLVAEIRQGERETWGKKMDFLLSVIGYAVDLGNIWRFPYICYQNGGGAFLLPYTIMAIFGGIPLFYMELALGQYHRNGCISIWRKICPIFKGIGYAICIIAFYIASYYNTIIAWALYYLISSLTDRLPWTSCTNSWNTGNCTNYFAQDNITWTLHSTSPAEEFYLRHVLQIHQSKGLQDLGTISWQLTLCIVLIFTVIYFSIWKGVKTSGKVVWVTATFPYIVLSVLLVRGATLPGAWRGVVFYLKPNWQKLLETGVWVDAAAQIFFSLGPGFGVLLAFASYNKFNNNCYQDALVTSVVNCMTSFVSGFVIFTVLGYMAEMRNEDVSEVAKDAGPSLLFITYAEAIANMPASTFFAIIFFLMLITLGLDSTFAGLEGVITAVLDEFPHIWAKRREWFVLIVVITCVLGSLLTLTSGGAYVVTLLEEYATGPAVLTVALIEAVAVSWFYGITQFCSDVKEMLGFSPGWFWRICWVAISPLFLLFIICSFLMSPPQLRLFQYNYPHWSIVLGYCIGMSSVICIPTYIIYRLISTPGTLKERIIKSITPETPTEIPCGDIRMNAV

Turning to `CNCC1CCCCC1c1cccc(O)c1` (centres unmarked) [3-(2-Methylaminomethyl-cyclohexyl)-phenol hydrochloride], the Ki in experiment [1] was 5670 nM; in experiment [2], 870 nM.

With `C=CCN1CC[C@]23c4c5ccc(O)c4O[C@H]2C(=O)CC[C@@]3(O)[C@H]1C5` [Naloxone], in experiment [3] (setting [4]), the “Open arms: Duration of stay” value stood at 28.6 s and the “Open arms: Number of entries” value stood at 4.5.

For the compound `CN(C)CC1CCCCC1c1cccc(O)c1` (centres unmarked) [3-(2-Dimethylaminomethyl-cyclohexyl)-phenol], in experiment [3] (setting [5]), the “Open arms: Duration of stay” value turned out to be 29.0 s and the “Open arms: Number of entries” value worked out at 3.2. Besides, in experiment [3] (setting [6]), the “Open arms: Duration of stay” value was 118.2* sec and the “Open arms: Number of entries” value amounted to 8.5. Moreover, the “anxiogenic-like action (in words)” value in experiment [3] (acute administration) is “In no case was an anxiogenic-like action induced”. In experiment [3] (single administration), the “anxiolytic action (in words)” value is “significant anxiolytic actions”, the “duration of stay in the open arms (in words)” value is listed as “significant increase” and the “number of entries into the open arms (in words)” value is “clear increase”. Further, in experiment [2] (versus 5-HT and NA reuptake inhibition), the “ratio between the μ-opioid component and the monoamine reuptake inhibition (in words)” value is “balanced ratio”.

As for `CN(C)CC1CCCCC1c1cccc(O)c1` (centres unmarked) [3-(2-Dimethylaminomethyl-cyclohexyl)-phenol, hydrochloride], the values for the Ki in experiment [1] and in experiment [2] were 50 nM and 140 nM, respectively.

As to `CN1C(=O)CN=C(c2ccccc2)c2cc(Cl)ccc21` [Diazepam], in experiment [3] (setting [7]), the “Open arms: Duration of stay” value is 77.7* sec and the “Open arms: Number of entries” value is given as 8.1*. Moreover, in experiment [3] (single administration), the “duration of stay in the open arms (in words)” value is reported as “increase” and the “number of entries into the open arms (in words)” value is “increase”.

With `COc1ccc(C(CN(C)C)C2(O)CCCCC2)cc1` (centres unmarked) [Venlafaxine], in experiment [3] (setting [6]), the “Open arms: Duration of stay” value turned out to be 66.9 s and the “Open arms: Number of entries” value amounted to 4.6. In addition, the “anxiolytic action (in words)” value in experiment [3] (single administration) is “no anxiolytic action”. Besides, the “μ-Opioid receptor affinity (Ki values)” value in experiment [2] ([3H]-naloxone, CHO-K1 membranes) is “inactive”.

These data come from patent US8084497B2, “C-(2-phenyl-cyclohexyl)-methylamine compounds for therapy of fibromyalgia” (Gruenenthal GmbH, priority 2003, dated 2011).
